From BindingDB's records for doi:10.1124/mol.60.1.124 (U410, 2001)
Values joined by “and” are separate entries in the source; they are usually repeats but may differ in a detail not shown here. Equal entries are not always repeated.

The compounds below were run against T1, Neuropeptide Y receptor type 2 (Rattus norvegicus, UniProt Q9ERC0).
T1 sequence (Q9ERC0 whole entry): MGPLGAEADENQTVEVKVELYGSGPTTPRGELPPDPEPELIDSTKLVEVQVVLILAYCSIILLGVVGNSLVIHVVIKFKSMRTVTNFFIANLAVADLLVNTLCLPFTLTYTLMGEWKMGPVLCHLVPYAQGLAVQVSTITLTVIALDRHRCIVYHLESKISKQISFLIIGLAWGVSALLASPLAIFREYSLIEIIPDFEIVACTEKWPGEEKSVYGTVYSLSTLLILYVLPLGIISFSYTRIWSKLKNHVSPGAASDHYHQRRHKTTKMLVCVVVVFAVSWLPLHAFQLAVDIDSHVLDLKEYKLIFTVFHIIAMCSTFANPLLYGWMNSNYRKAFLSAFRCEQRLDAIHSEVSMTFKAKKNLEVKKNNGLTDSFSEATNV
For `O=c1oc2ccccc2c(O)c1C1CC(c2ccc(-c3ccccc3)cc2)Cc2ccccc21` (stereo not drawn) [NSC_41735], the Ki was 1000 nM. With `NC(N)=NCCCC(NC(=O)CC1(CC(=O)N2CCN(C3c4ccccc4NC(=O)c4ccccc43)CC2)CCCC1)C(=O)NCCn1c(=O)n(-c2ccccc2)n(-c2ccccc2)c1=O` (stereo not drawn) [NSC_5311024] the Ki was 6.5 nM. With `CC(=O)N[C@@H](C)C(=O)N[C@@H](CO)C(=O)N[C@@H](CC(C)C)C(=O)N[C@@H](CCCNC(=N)N)C(=O)N[C@@H](Cc1cnc[nH]1)C(=O)N[C@@H](Cc1ccc(O)cc1)C(=O)N[C@@H](CC(C)C)C(=O)N[C@@H](CC(N)=O)C(=O)N[C@@H](CC(C)C)C(=O)N[C@H](C(=O)N[C@H](C(=O)N[C@@H](CCCNC(=N)N)C(=O)N[C@@H](CCC(N)=O)C(=O)N[C@@H](CCCNC(=N)N)C(=O)N[C@@H](Cc1ccc(O)cc1)C(N)=O)[C@@H](C)O)C(C)C` [PYY, N-alpha-Ac, 22-36] the Ki was 1.66 nM and 0.54 nM.
